Data as given in patent US9040019B2, “Methods of detecting myelin basic protein” (General Electric Company, priority 2012, dated 2015).

How the values were obtained:
[1] = Measurement of optical properties of the agents (absorbance and fluorescence emission); type: physicochemical; conditions: in DMSO; for Absorbance Maximum / Emission Maximum / Stoke shift: nerve labeling agents; for Abs (maximal absorbance wavelength) / Em (maximal fluorescence emission wavelength): compounds lacking nerve binding
Experimental: The flurophores were dissolved in dimethylsulfoxide (DMSO) to make a 10 mM stock solution. An aliquot was taken to prepare a 10-100 μM flurophore solution in methanol, water, or DMSO. Optical measurements from the three solvents were taken. Absorbance spectra were measured using a PerkinElmer Lambda™ 20 UV/VIS spectrometer (PerkinElmer, Waltham, Mass.). Emission spectra were generated using a PTI steady state fluorimeter (Photon Technology International, Birmingham, N.H.). The stoke shift for nerve labeling agents on Table 3 are greater than 100 nm.

[2] = tested on: sciatic nerve tissue sections; test: Ex vivo binding of nerve labelling agents to sciatic nerve tissue sections (fluorescence microscopy); parameters: species or system male Sprague Dawley (SD) rats; conditions: 10 μM or 20 μM agent, 1 hour incubation, compared to control tissue without agent
Experimental: For ex vivo histological evaluation, various nerves including sciatic, femoral and trigeminal were harvested from male Sprague Dawley (SD) rats. Tissue was fixed by perfusion and/or post-fixed with formalin. Nerves were then flash-frozen using methanol and dry ice in OCT media. In some cases, polyvinylidene fluoride membranes were used to help keep the nerves vertical in the OCT media. Thin sections (5-10 microns) were sliced on a Leica microtome and stored in a −80° C. freezer prior to staining with antibodies or fluorescent dyes.
Nerve sections were prepared as described above. At the time of staining the slides were removed from −80° C. and allowed to come to room temperature. The nerves were fixed in neutral buffered formalin (10%) for 5 min after which the slides were rinsed in 1×PBS (3×, 5 min/each). 10 μM, or 20 μM each Formula II, Formula III, Formula IV, Formula V, or Formula VI was added onto the tissue in a formulation containing 10% Cremophor EL and 60% rat serum made in 1×PBS. The slides were incubated for 1 hour in a dark, moist/humid chamber at room temperature after which they were washed 3 times for 5 min/each in 1×PBS, cover-slipped, and imaged using the appropriate filter cube on a Zeiss Axioimager at 200× magnification.

[3] = tested on: nerves; test: Pre-clinical fluorescence in vivo imaging of nerves in a large rodent model; parameters: species or system Sprague Dawley (SD) rat; conditions: 0.5 hours post injection
Experimental: (§1) All procedures were approved by the Institutional Animal Care and Use Committee (IACUC) at GE Global Research. Male CD-1 mice ranging in body weight from 25-30 g and SD rats (250-350 g) were purchased from Charles River Laboratories (Wilmington, Mass.) and housed at 22-23° C. on a 12-hour light/dark cycle. On the day of the experiment, rodents were anesthetized using 2-4% isofluorane and given a single tail vein injection of either imaging agent in formulation or formulation excipients alone. […]
(§2) In vivo imaging consisted of detailed fluorescence emission characterization and surgical imaging using a Zeiss Lumar™ imaging system (Carl Zeiss Inc. Thornwood, N.Y.) with coupled multispectral imaging camera (Nuance camera; CRI, Woburn, Mass.) or AxioCam™ (Carl Zeiss Inc. Thornwood, N.Y.). […] A variety of excitation filters were used to characterize the in vivo fluorescence of these agents. […] Fluorescence emission data was then recorded at wavelengths ranging from 420 to 720 nm at 10 nm steps using the attached CRI-Nuance™ camera (Cambridge Research and Instrumentation Inc., Wobur, Mass.) or using a 500 nm-long pass filter on the AxioCam. Fluorescence images were collected using exposure times of 5 seconds in both control and agent injected animals for normalization. […]

[4] = tested on: nerve, muscle, and adipose tissue; test: Kinetics of clearance, tissue fluorescence after IV injection; type: in vivo, adult male CD-1 mice; conditions: 3.33 mg/kg IV; 0.5, 1, 2 and 3 hours post injection
Experimental: as §1, §2

| Absorbance Maximum [1] | Emission Maximum [1] | Stoke shift [1] | Abs (maximal absorbance wavelength) [1] | Em (maximal fluorescence emission wavelength) [1] | Ex vivo binding to sciatic nerve tissue sections (fluorescence signal) [2] | Compound | further results |
| --- | --- | --- | --- | --- | --- | --- | --- |
| 484 nm | 618 nm | 134 nm | – | – | – | CC1=CC(=C(C#N)C#N)C=C(/C=C/c2ccc(NCCO)cc2)O1 [Formula V] | – |
| – | – | – | 574 nm | 621 nm | – | CC1(C)OC(=C(C#N)C#N)C(C#N)=C1/C=C/c1ccc(N)cc1 [D] | – |
| – | – | – | – | – | fluorescence signal is evident | CC1=CC(=C(C#N)C#N)C=C(/C=C/c2ccc(N(CCO)CCO)cc2)O1 [III] | – |
| – | – | – | – | – | fluorescence signal is evident | COc1cc(/C=C/C2=CC(=C(C#N)C#N)C=C(C)O2)ccc1NCc1ccc(N)cc1 [IV] | – |
| – | – | – | – | – | fluorescence signal is evident | CC1=CC(=C(C#N)C#N)C=C(/C=C/c2ccc(NCCO)cc2)O1 [V] | – |
| – | – | – | 505 nm | 591 nm | – | CC1(C)OC(=O)C(C#N)=C1/C=C/c1ccc(N(CCO)CCO)cc1 [C] | – |
| 491 nm | 623 nm | 132 nm | – | – | – | CC1=CC(=C(C#N)C#N)C=C(/C=C/c2ccc(N(CCO)CCO)cc2)O1 [Formula III] | – |
| – | – | – | 596 nm | 656 nm | – | CC1(C)OC(=C(C#N)C#N)C(C#N)=C1/C=C/c1ccc(N(CCO)CCO)cc1 [F] | – |
| – | – | – | 590 nm | 636 nm | – | CC1(C)OC(=C(C#N)C#N)C(C#N)=C1/C=C/c1ccc(NCCO)cc1 [E] | – |
| 492 nm | 642 nm | 150 nm | – | – | – | COc1cc(/C=C/C2=CC(=C(C#N)C#N)C=C(C)O2)ccc1NCc1ccc(N)cc1 [Formula IV] | – |
| – | – | – | 480 nm | 562 nm | – | CC1(C)OC(=O)C(C#N)=C1/C=C/c1ccc(N)cc1 [A] | – |
| – | – | – | 494 nm | 578 nm | – | CC1(C)OC(=O)C(C#N)=C1/C=C/c1ccc(NCCO)cc1 [B] | – |
| – | – | – | – | – | fluorescence signal is evident | COc1cc(/C=C/C2=CC(=C(C#N)C#N)C=C(C)O2)ccc1N [VI] | – |
| 478 nm | 607 nm | 129 nm | – | – | fluorescence signal is evident | CC1=CC(=C(C#N)C#N)C=C(/C=C/c2ccc(N)cc2)O1 [Formula II] | Nerve visibility in fluorescence imaging ([3]; 8.33 mg/kg IV): Visible nerves present; Nerve visibility in fluorescence imaging ([3]; 16.67 mg/kg IV): Visible nerves present; Maximum tissue-specific fluorescence intensity over time post injection (nerve, muscle, adipose tissue) [4]: decreases with increasing time post injection |
| 478 nm | 631 nm | 153 nm | – | – | – | COc1cc(/C=C/C2=CC(=C(C#N)C#N)C=C(C)O2)ccc1N [Formula VI] | – |
